These results are taken from US6528496B1, “Compositions treating, preventing or reducing elevated metabolic levels” (priority 1992, dated 2003).

For data set [1], the system named is serum MMA and HC. Put plainly: Parenteral B12 treatment of geriatric nursing home patients with serum B12<300 pg/ml, response of serum MMA and HC (Example 4). In kind it is in vivo, human. The protocol:
A study was conducted with 212 elderly nursing home patients to determine serum B12, folate, MMA, and HC levels (Table 3). The significance of the results shown in Table 3 marked with “**” are as described for Table 2 (Example 3). The control group consisted of 100 subjects between the ages of 17-65 years.

Data set [2] deals with serum MMA and HC. Put plainly: Parenteral B12 treatment of geriatric outpatients with low and low/normal serum B12, response of serum MMA and HC (Example 3). In kind it is in vivo, human. The note with it: weekly injections of 1.0 mg B12. The protocol:
A study was conducted with 152 elderly outpatient subjects to measure the prevalence of B12 deficiency in geriatric outpatients as determined by both low serum B12 levels and elevations of MMA and HC, and to determine the response to B12 treatment. Blood samples were obtained on 152 consecutive geriatric outpatients, ages 65-99. Control values were determined from 100 subjects, ages 17-65. The significance of the results marked as “**” in Table 2 are as follows: B12 levels of<200 pg/ml; folate<3.8 ng/ml; homocysteine>16.2 uM; MMA>271 nM; CT>342 nM; and 2-MCA>228 nM. Serum MMA, HC, CT, and 2-MCA levels were measured as described in Example 1. Serum B12 and folate were measured as described in Example 1 using a Corning Immophase kit (CIBA-Corning, Medfield, Mass.) with the normal range defined as 200-800 pg/ml for B12 and 3.8 ng/ml for folate. After evaluation, patients received weekly parenteral cyanocobalamin injections (1,000 ug IM) for 8 weeks, followed by monthly injections. Repeat laboratory and clinical assessments were administered at 8 weeks and at 6 months.
Patients with low and low/normal serum B12 levels were treated with weekly injections of 1.0 mg B12. […] It appears that the true prevalence of previously unrecognized B12 deficiency in this elderly population was at least 14.5%.

For data set [3] the following is noted: 2.0 mg oral dose, in the absence of intrinsic factor; cited from earlier work.
The mark [4] stands for this setting: parenteral 1 mg per week for 8 weeks, nursing home patients with serum B12<300 pg/ml.

“Also recorded” adds a separate entry of the source.

In the case of cyanocobalamin [B12], in data set [1] (setting [4]), the “effect on elevated serum HC levels (FIG. 10)” value is listed as “fall to or towards normal” and the “effect on elevated serum MMA levels (FIG. 9)” value is “fall to or towards normal”. In data set [1] (some of the nursing home patients with elevated metabolite levels), the “response of elevated metabolite levels to B12 treatment” value is given as “did not fully respond”. The “effect on elevated metabolite levels (serum MMA and HC, FIGS. 4 and 5)” value in data set [2] is “fall to or towards normal; also recorded: did not fully respond”. For the same substance, in data set [3], the “fraction of oral dose absorbed by diffusion” value is given as “approximately 1%”.
